Patent US20230330229A1, “METHODS FOR IMAGE-GUIDED RADIOTHERAPY” (UNIVERSITE CLAUDE BERNARD LYON 1, priority 2020, published 2023)

Legend:
[1] = magnetic field of 3 Tesla, literature reference; cited from earlier work
brain metastases = assay: MRI signal enhancement in brain metastases (Nano-Rad phase I-b trial, 3 Tesla, 3D T1-weighted); type: in vivo, human; details: D0, 15 min after injection, 0.1 mmol/kg i.v., metastases >1 cm
Source text: This study is part of a prospective dose escalation phase I-b clinical trial to evaluate the tolerance of the intravenous administration of radiosensitizing AGuIX nanoparticles in combination with whole brain radiotherapy for the treatment of brain metastases. The Nano-Rad trial (Radiosensitization of Multiple Brain Metastases Using AGuIX Gadolinium Based Nanoparticles) was registered as NCT02820454. Here, we report the findings of the MRI protocol applied to the 15 recruited patients. […]
MRI analyses were performed using an in-house computer program called MP3 (https://github.com/nifm-gin/MP3) developed by the GIN Laboratory (Grenoble, France) and running under Matlab® software. Image analyses include counting and measurements of metastases, quantification of contrast enhancement, relaxation times and concentration of nanoparticles. […] The MRI enhancement, expressed in percentage, was defined as the ratio of the MRI signal amplitude post contrast agent administration over the MRI signal amplitude pre contrast agent administration; the MRI signal amplitude being measured in the 3D T1-weighted image dataset. […]

[2] = Detection of solutions in Eppendorf by MRIdian MR-linac at 0.35 T; details: spin echo, solutions in PPI water
Experimental: ViewRay Linac MRI displaying magnetic field of 0.35 T (MRIdian MR-linac, ViewRay Inc., Oakwood, USA) (S. Klüter, Clinical and Translational Radiation Oncology, 2019), samples with different concentrations in gadolinium were tested and compared to Multihance (Bracco) using the Torso coil (two surface flexible 6-channel coils array).
The ViewRay MRIdian system is clinically used for external radiotherapy purpose, thus it is a very appropriate device dedicated to the use of the AGuIX. A 2D coronal spin echo sequence was used: TR=400 ms, TE=20 ms, Flip Angle=90°, Bandwidth=57. Hz/Px, Matrix=512×512, Slice Thickness=3 mm, Field Of View=350×350×263 mm, Number of Averages=5. The total acquisition time was 12:30 minutes.
Solutions of multihance and AGuIX were prepared by dilution in PPI water from stock solutions of 0.5 mol·L^−1 and 100 g·L^−1 respectively 1 hour before imaging and placed in Eppendorf.

Compound: CNC[C@H](O)[C@@H](O)[C@H](O)[C@H](O)CO.O=C([O-])CN1CCN(CC(=O)[O-])CCN(CC(=O)O)CCN(CC(=O)[O-])CC1.[Gd+3] [Dotarem, gadoterate meglumine]
- r1 per Gd^3+ ion [1]: 3.5 mM⁻¹ s⁻¹
- MRI enhancement averaged over all measurable metastases (brain metastases): 182.9±116.2%

Compound: O=C([O-])CN(CCN(CC(=O)[O-])CC(=O)[O-])CCN(CC(=O)[O-])C(COCc1ccccc1)C(=O)[O-].[Gd+3].[H+].[H+] (stereo not drawn) [Multihance, gadobenic acid]
- Detection sensitivity (lowest detected [Gd^3+]) [2]: 25 µM
